Values quoted from earlier work, collected in US20230025286A1, “PHARMACEUTICAL COMPOSITION COMPRISING ELTROMBOPAG BIS(MONOETHANOLAMINE)” (SYNTHON B.V., priority 2019, published 2023).

How the values were obtained:
[1] = background statement, no method or value given
[2] = background statement, no method or value given; remark: listed apart in the source

permeability [1]: medium | solubility [2]: low
SMILES: CC1=NN(c2ccc(C)c(C)c2)C(=O)/C1=N\Nc1cccc(-c2cccc(C(=O)O)c2)c1O.NCCO.NCCO [Eltrombopag bis(monoethanolamine), 3′-{(2Z)-2-[1-(3,4-dimethylphenyl)-3-methyl-5-oxo-1,5-dihydro-4H-pyrazol-4-ylidene]hydrazino}-2′-hydroxy-3-biphenylcarboxylic acid bis(monoethanolamine)]
